Measurements: ChEMBL document CHEMBL1151339, “Antitumor agents from bohemic acid complex, III. The isolation of marcellomycin, musettamycin, rudolphomycin, mimimycin, collinemycin, alcindoromycin, and bohemamine” (J Nat Prod, 1980)

Legend:
B16 [1] = assay: Antitumor activity against mouse B16 cells xenografted in BDF1 mouse assessed as median survival time at 1.6 mg/kg; type: functional
Pichia kudriavzevii = assay: Antifungal activity against Candida krusei A15052 by 2-fold tube dilution method; type: functional
Microsporum canis = assay: Antifungal activity against Microsporum canis A-9872 by 2-fold tube dilution method; type: functional
B16 [2] = assay: Antitumor activity against mouse B16 cells xenografted in BDF1 mouse assessed as median survival time at 0.05 mg/kg; type: functional
Proteus mirabilis = assay: Antibacterial activity against Proteus mirabilis A-9900 by 2-fold tube dilution method; type: functional
B16 [3] = assay: Antitumor activity against mouse B16 cells xenografted in BDF1 mouse at 0.8 mg/kg relative to control; type: functional
Mus musculus = assay: Toxicity in BDF1 mouse xenografted with mouse B16 cells assessed as survival at 0.8 mg/kg after 5 days; type: organism-based; parameters: dose 0.8 mg/kg
B16 [4] = assay: Antitumor activity against mouse B16 cells xenografted in BDF1 mouse assessed as change in tumor average weight at 1.6 mg/kg; type: functional
L1210 [5] = assay: Antitumor activity against mouse L1210 cells xenografted in BDF1 mouse at 3.2 mg/kg, ip relative to control; type: functional; conditions: route intraperitoneal
L1210 [6] = assay: Antitumor activity against mouse L1210 cells xenografted in BDF1 mouse assessed as change in tumor average weight at 1.6 mg/kg, ip; type: functional; conditions: route intraperitoneal
Candida albicans = assay: Antifungal activity against Candida albicans A15050 by 2-fold tube dilution method; type: functional
L1210 [7] = assay: Antitumor activity against mouse L1210 cells xenografted in BDF1 mouse at 1.6 mg/kg, ip relative to control; type: functional; conditions: route intraperitoneal
B16 [8] = assay: Antitumor activity against mouse B16 cells xenografted in BDF1 mouse assessed as change in tumor average weight at 0.8 mg/kg; type: functional
B16 [9] = assay: Antitumor activity against mouse B16 cells xenografted in BDF1 mouse at 3.2 mg/kg relative to control; type: functional
L1210 [10] = assay: Antitumor activity against mouse L1210 cells xenografted in BDF1 mouse assessed as change in tumor average weight at 0.8 mg/kg, ip; type: functional; conditions: route intraperitoneal

Q: What does the source list for `CC[C@@]1(O)C[C@H](O[C@H]2C[C@H](N(C)C)[C@H](O[C@H]3C[C@H](O)[C@H](O[C@@H]4O[C@@H](C)C(=O)C=C4N)[C@@H](C)O3)[C@@H](C)O2)c2c(cc3c(c2O)C(=O)c2c(O)ccc(O)c2C3=O)[C@H]1C(=O)OC` [RUDOLPHOMYCIN]?
A: Activity (B16 [1]): 32 days; MIC (Pichia kudriavzevii): > 16 µg/mL; MIC (Microsporum canis): > 16 µg/mL; Activity (B16 [2]): 22 days; MIC (Proteus mirabilis): > 125 µg/mL; T/C (B16 [3]): 145%; AC50 (Mus musculus): Non-toxic; Activity (B16 [4]): -2.5 g; T/C (L1210 [5]): 107%; Activity (L1210 [6]): -1.2 g; MIC (Candida albicans): > 16 µg/mL; T/C (L1210 [7]): 133%; Activity (B16 [8]): -0.2 g; T/C (B16 [9]): 115%; Activity (L1210 [10]): -1.6 g
